Experimental data: patent US10004701B2, “Methods and compositions for treating infection” (UNIVERSITY OF ROCHESTER, priority 2012, dated 2018)
Structures can show the parent of a compound that is named as a salt. Where two headings read alike, the source gives them in different places.

Tests used:
Test in all cases: AK assay 384-well format, Prestwick library screening
[1] = system: E. coli; type: cell-based, Escherichia coli; settings: for fold induction at 50 µM: Escherichia coli, 3 h
[2] = system: S. aureus strain USA300-0114; type: cell-based, Staphylococcus aureus; settings: for fold induction at 50 µM: Staphylococcus aureus, USA300, 3 h
[3] = system: A. baumannii strain 98-37-09; type: cell-based, Acinetobacter baumannii; settings: for fold induction at 50 µM: Acinetobacter baumannii, 983709, 3 h
[4] = system: E. faecium; type: cell-based, Enterococcus faecium; settings: for fold induction at 50 µM: Enterococcus faecium, 3 h
[5] = system: P. aeruginosa; type: cell-based, Pseudomonas aeruginosa; settings: for fold induction at 50 µM: Pseudomonas aeruginosa, 3 h
[6] = system: K. pneumoniae; type: cell-based, Klebsiella pneumoniae; settings: for fold induction at 50 µM: Klebsiella pneumoniae, 3 h
[7] = system: E. cloacae; type: cell-based, Enterobacter cloacae; settings: Enterobacter cloacae, 3 h; planktonic E. cloacae; 50 μM final drug concentration; cutoff for positive-scoring molecules 3-fold increase; read-out: AK-based Prestwick Library Screening Results, E. cloacae (increase in extracellular AK activity)
[8] = planktonic E. coli, 50 μM final drug concentration, 384-well, […]

CN1[C@@H]2CC[C@H]1C[C@@H](OC(=O)C(CO)c1ccccc1)C2 (stereo partly shown) [Atropine sulfate monohydrate]
fold induction at 50 µM ([1]; planktonic E. coli, 50 μM final drug concentration, […], read-out: AK-based Prestwick Library Screening Results, E. coli (increase in extracellular AK activity)): 0.6
fold induction at 50 µM ([2]; planktonic S. aureus, 50 μM final drug concentration, […], read-out: AK-based Prestwick Library Screening Results, S. aureus (increase in extracellular AK activity)): 0.5
fold induction at 50 µM ([3]; planktonic A. baumannii, 50 μM final drug concentration, […], read-out: AK-based Prestwick Library Screening Results, A. baumannii (increase in extracellular AK activity)): 0.5
fold induction at 50 µM ([4]; planktonic E. faecium, 50 μM final drug concentration, […], read-out: AK-based Prestwick Library Screening Results, E. faecium (increase in extracellular AK activity)): 0.8
fold induction at 50 µM ([5]; planktonic P. aeruginosa, 50 μM final drug concentration, […], read-out: AK-based Prestwick Library Screening Results, P. aeruginosa (increase in extracellular AK activity)): 0.5
fold induction at 50 µM ([6]; planktonic K. pneumoniae, 50 μM final drug concentration, […], read-out: AK-based Prestwick Library Screening Results, K. pneumoniae (increase in extracellular AK activity)): 0.5

CCOC(=O)c1cncn1[C@H](C)c1ccccc1 [Etomidate]
fold induction at 50 µM ([1]; 50 μM final drug concentration, […], read-out: AK-based Prestwick Library Screening Results, E. coli (fold increase in extracellular AK activity)): 0.5
fold induction at 50 µM ([2]; 50 μM final drug concentration, […], read-out: AK-based Prestwick Library Screening Results, S. aureus (fold increase in extracellular AK activity)): 0.3
fold induction at 50 µM ([3]; 50 μM final drug concentration, […], read-out: AK-based Prestwick Library Screening Results, A. baumannii (fold increase in extracellular AK activity)): 0.3
fold induction at 50 µM ([4]; 50 μM final drug concentration, […], read-out: AK-based Prestwick Library Screening Results, E. faecium (fold increase in extracellular AK activity)): 0.9
fold induction at 50 µM ([5]; 50 μM final drug concentration, […], read-out: AK-based Prestwick Library Screening Results, P. aeruginosa (fold increase in extracellular AK activity)): 0.4
fold induction at 50 µM ([6]; 50 μM final drug concentration, […], read-out: AK-based Prestwick Library Screening Results, K. pneumoniae (fold increase in extracellular AK activity)): 0.4

CN1[C@@H]2CC[C@H]1C[C@@H](OC(=O)[C@H](CO)c1ccccc1)C2 [Hyoscyamine (L)]
AK-based Prestwick Library Screening Results: E. coli (increase in extracellular AK activity) [1, 8]: 1.3
AK-based Prestwick Library Screening Results: S. aureus (increase in extracellular AK activity) ([2]; planktonic S. aureus, 50 μM final drug concentration, 384-well, […]): 1.2
AK-based Prestwick Library Screening Results: A. baumannii (increase in extracellular AK activity) ([3]; planktonic A. baumannii, 50 μM final drug concentration, 384-well, […]): 1.4
AK-based Prestwick Library Screening Results: E. faecium (increase in extracellular AK activity) ([4]; planktonic E. faecium, 50 μM final drug concentration, 384-well, […]): 1.0
AK-based Prestwick Library Screening Results: P. aeruginosa (increase in extracellular AK activity) ([5]; planktonic P. aeruginosa, 50 μM final drug concentration, 384-well, […]): 1.2
AK-based Prestwick Library Screening Results: K. pneumoniae (increase in extracellular AK activity) ([6]; planktonic K. pneumoniae, 50 μM final drug concentration, 384-well, […]): 1.2

CN(C)CCCN1c2ccccc2CCc2ccccc21 [Imipramine hydrochloride]
fold induction at 50 µM ([1]; planktonic E. coli, 50 μM final drug concentration, 384-well, cutoff for positive-scoring molecules 3-fold increase, read-out: AK-based Prestwick Library Screening Results: E. coli (increase in extracellular AK activity)): 1.2
fold induction at 50 µM ([2]; planktonic S. aureus, 50 μM final drug concentration, 384-well, cutoff for positive-scoring molecules 3-fold increase, read-out: AK-based Prestwick Library Screening Results: S. aureus (increase in extracellular AK activity)): 1.2
fold induction at 50 µM ([3]; planktonic A. baumannii, 50 μM final drug concentration, 384-well, cutoff for positive-scoring molecules 3-fold increase, read-out: AK-based Prestwick Library Screening Results: A. baumannii (increase in extracellular AK activity)): 1.3
fold induction at 50 µM ([4]; planktonic E. faecium, 50 μM final drug concentration, 384-well, cutoff for positive-scoring molecules 3-fold increase, read-out: AK-based Prestwick Library Screening Results: E. faecium (increase in extracellular AK activity)): 0.9
fold induction at 50 µM ([5]; planktonic P. aeruginosa, 50 μM final drug concentration, 384-well, cutoff for positive-scoring molecules 3-fold increase, read-out: AK-based Prestwick Library Screening Results: P. aeruginosa (increase in extracellular AK activity)): 1.1
fold induction at 50 µM ([6]; planktonic K. pneumoniae, 50 μM final drug concentration, 384-well, cutoff for positive-scoring molecules 3-fold increase, read-out: AK-based Prestwick Library Screening Results: K. pneumoniae (increase in extracellular AK activity)): 1

O=C1CC[C@@]2(O)[C@H]3Cc4ccc(O)c5c4[C@@]2(CCN3CC2CC2)[C@H]1O5 [Naltrexone hydrochloride dihydrate]
fold induction at 50 µM ([1]; read-out: AK-based Prestwick Library Screening Results, E. coli (increase in extracellular AK activity)): 0.9
fold induction at 50 µM ([2]; read-out: AK-based Prestwick Library Screening Results, S. aureus (increase in extracellular AK activity)): 0.7
fold induction at 50 µM ([3]; read-out: AK-based Prestwick Library Screening Results, A. baumannii (increase in extracellular AK activity)): 0.9
fold induction at 50 µM ([4]; read-out: AK-based Prestwick Library Screening Results, E. faecium (increase in extracellular AK activity)): 1
fold induction at 50 µM ([5]; read-out: AK-based Prestwick Library Screening Results, P. aeruginosa (increase in extracellular AK activity)): 0.8
fold induction at 50 µM ([6]; read-out: AK-based Prestwick Library Screening Results, K. pneumoniae (increase in extracellular AK activity)): 0.6

COc1cc2nc(N3CCN(C(=O)c4ccco4)CC3)nc(N)c2cc1OC [Prazosin hydrochloride]
fold induction at 50 µM ([1]; 50 μM final drug concentration, cutoff for positive-scoring molecules 3-fold increase, read-out: AK-based Prestwick Library Screening Results, E. coli (fold increase in extracellular AK activity)): 1.2
fold induction at 50 µM ([2]; 50 μM final drug concentration, cutoff for positive-scoring molecules 3-fold increase, read-out: AK-based Prestwick Library Screening Results, S. aureus (fold increase in extracellular AK activity)): 1.4
fold induction at 50 µM ([3]; 50 μM final drug concentration, cutoff for positive-scoring molecules 3-fold increase, read-out: AK-based Prestwick Library Screening Results, A. baumannii (fold increase in extracellular AK activity)): 1.4
fold induction at 50 µM ([4]; 50 μM final drug concentration, cutoff for positive-scoring molecules 3-fold increase, read-out: AK-based Prestwick Library Screening Results, E. faecium (fold increase in extracellular AK activity)): 1.1
fold induction at 50 µM ([5]; 50 μM final drug concentration, cutoff for positive-scoring molecules 3-fold increase, read-out: AK-based Prestwick Library Screening Results, P. aeruginosa (fold increase in extracellular AK activity)): 1.1
fold induction at 50 µM ([6]; 50 μM final drug concentration, cutoff for positive-scoring molecules 3-fold increase, read-out: AK-based Prestwick Library Screening Results, K. pneumoniae (fold increase in extracellular AK activity)): 0.9

C=C[C@H]1C[N@@]2CC[C@H]1C[C@@H]2[C@@H](O)c1ccnc2ccc(OC)cc12 [Quinidine hydrochloride monohydrate]
fold induction at 50 µM ([1]; 50 μM final drug concentration, 384-well format, […], read-out: AK-based Prestwick Library Screening Results, E. coli (increase in extracellular AK activity)): 1
fold induction at 50 µM ([2]; 50 μM final drug concentration, 384-well format, […], read-out: AK-based Prestwick Library Screening Results, S. aureus (increase in extracellular AK activity)): 0.9
fold induction at 50 µM ([3]; 50 μM final drug concentration, 384-well format, […], read-out: AK-based Prestwick Library Screening Results, A. baumannii (increase in extracellular AK activity)): 0.9
fold induction at 50 µM ([4]; 50 μM final drug concentration, 384-well format, […], read-out: AK-based Prestwick Library Screening Results, E. faecium (increase in extracellular AK activity)): 1
fold induction at 50 µM ([5]; 50 μM final drug concentration, 384-well format, […], read-out: AK-based Prestwick Library Screening Results, P. aeruginosa (increase in extracellular AK activity)): 0.9
fold induction at 50 µM ([6]; 50 μM final drug concentration, 384-well format, […], read-out: AK-based Prestwick Library Screening Results, K. pneumoniae (increase in extracellular AK activity)): 0.8

Oc1ccc(C=Cc2cc(O)cc(O)c2)cc1 [Resveratrol]
fold induction at 50 µM [7]: 0.1

Clc1ccccc1CN1CCc2sccc2C1 [Ticlopidine hydrochloride]
fold induction at 50 µM ([1]; 50 μM final drug concentration, 384-well format, cutoff for positive-scoring molecules 3-fold increase, read-out: AK-based Prestwick Library Screening Results, E. coli (increase in extracellular AK activity)): 1.3
fold induction at 50 µM ([2]; 50 μM final drug concentration, 384-well format, cutoff for positive-scoring molecules 3-fold increase, read-out: AK-based Prestwick Library Screening Results, S. aureus (increase in extracellular AK activity)): 0.8
fold induction at 50 µM ([3]; 50 μM final drug concentration, 384-well format, cutoff for positive-scoring molecules 3-fold increase, read-out: AK-based Prestwick Library Screening Results, A. baumannii (increase in extracellular AK activity)): 1.1
fold induction at 50 µM ([4]; 50 μM final drug concentration, 384-well format, cutoff for positive-scoring molecules 3-fold increase, read-out: AK-based Prestwick Library Screening Results, E. faecium (increase in extracellular AK activity)): 1
fold induction at 50 µM ([5]; 50 μM final drug concentration, 384-well format, cutoff for positive-scoring molecules 3-fold increase, read-out: AK-based Prestwick Library Screening Results, P. aeruginosa (increase in extracellular AK activity)): 1.1
fold induction at 50 µM ([6]; 50 μM final drug concentration, 384-well format, cutoff for positive-scoring molecules 3-fold increase, read-out: AK-based Prestwick Library Screening Results, K. pneumoniae (increase in extracellular AK activity)): 1

COc1ccc(CCN(C)CCCC(C#N)(c2ccc(OC)c(OC)c2)C(C)C)cc1OC.Cl (stereo not shown) [Verapamyl hydrochloride]
AK-based Prestwick Library Screening Results: E. coli (increase in extracellular AK activity) [1, 8]: 1.3
AK-based Prestwick Library Screening Results: S. aureus (increase in extracellular AK activity) ([2]; planktonic S. aureus, 50 μM final drug concentration, 384-well, cutoff for positive-scoring molecules 3-fold increase): 1.2
AK-based Prestwick Library Screening Results: A. baumannii (increase in extracellular AK activity) ([3]; planktonic A. baumannii, 50 μM final drug concentration, 384-well, cutoff for positive-scoring molecules 3-fold increase): 1.5
AK-based Prestwick Library Screening Results: E. faecium (increase in extracellular AK activity) ([4]; planktonic E. faecium, 50 μM final drug concentration, 384-well, cutoff for positive-scoring molecules 3-fold increase): 0.9
AK-based Prestwick Library Screening Results: P. aeruginosa (increase in extracellular AK activity) ([5]; planktonic P. aeruginosa, 50 μM final drug concentration, 384-well, cutoff for positive-scoring molecules 3-fold increase): 1.2
AK-based Prestwick Library Screening Results: K. pneumoniae (increase in extracellular AK activity) ([6]; planktonic K. pneumoniae, 50 μM final drug concentration, 384-well, cutoff for positive-scoring molecules 3-fold increase): 0.9
